From patent US20250108029A1, “INHIBITORS OF THE INTERACTION BETWEEN THE ROCK AND PDK1 PROTEIN KINASES” (Université Paris Cite, priority 2021, published 2025)
Like-named read-outs stand apart in the source and are kept apart here.

Key:
[1] = system: peripheral blood mononuclear cells (PBMCs); experiment: Interferon secretion by PBMCs stimulated with HIV (THP1-Dual reporter); format: cell-based, human; conditions: 20 μM, 1 h before stimulation by the HIV virus, 24 h
Text: (§1) The supernatants were collected for cytokine detection.

[2] = system: B lymphocytes; experiment: B lymphocyte activation (CD69) by flow cytometry after TLR9 stimulation; format: cell-based, human; conditions: 20 μM, 1 h before TLR9 agonist CpG-A, 16 h
Experimental: The B lymphocytes were purified by negative selection with the “B Cell Isolation Kit” (Miltenyi).
The B lymphocytes were cultured at 1×10^6/ml. […] They were stimulated for 16 h (flow cytometry) with the TLR9 agonist CpG-A at […]. The cells were recovered for flow cytometry.
After washing, the cells were resuspended in PBS containing 2% of FCS and 2 mM of EDTA and then labeled with an anti-CD69 antibody (clone REA824) from Miltenyi Biotec, used at 1/100° for 30 min at 4° C. The cells were washed twice and then passed into flow cytometry. The data acquisition was carried out on the Canto II flow cytometer using Diva software (BD Biosciences, San Jose, CA). FlowJo software was used to analyze the data.

[3] = system: IRFs; experiment: Interferon pathway (IRF) activity in reporter cells fed supernatants of R848-stimulated PBMCs; format: cell-based, human; conditions: for IC50: Homo sapiens, PBMC, read-out: IC50 IFR; for secretion of interferons on PBMCs: preventively, 1 h before stimulation by TLR7/8
Text: as §1

[4] = system: peripheral blood mononuclear cells (PBMCs); experiment: Interferon secretion by PBMCs stimulated with influenza virus (THP1-Dual reporter); format: cell-based, human; conditions: 20 μM, 1 h before stimulation by the influenza virus, 24 h
[5] = system: IRF transcription factor; experiment: IRF activation in THP1-Dual cells after cGAMP (luciferase assay); format: cell-based, human; conditions: according to a dose effect; stimulation of the STING interferon pathway by cGAMP, 24 h
Experimental: The THP1-Dual reporter cell line was cultured at 5×10^5/ml. […] The THP1-Dual cells were stimulated for 24 h with the STING pathway agonist, cGAMP. Luciferase assay (luminometry)
The THP1-Dual cells express the Lucia luciferase reporter gene under a promoter containing five IFN response elements. The THP1-Dual cells allow the IRF pathway to be studied by measuring Lucia luciferase activity. Lucia luciferase activity is determined by means of the QUANTI-Luc Gold assay (InvivoGen). The THP1-Dual cells are cultured in a 96-well plate (200 μL/well). After LPS or R848 treatment, for each well, 10 μL of culture medium are added to 50 μL of QUANTI-Luc GOLD solution and the light signal produced is measured by means of a luminometer.

[6] = system: NF-κB transcription factor; experiment: NF-κB activation in THP1-Dual cells (SEAP assay); format: cell-based, human; conditions: according to a dose effect
Experimental: The THP1-Dual reporter cell line was cultured at 5×10^5/ml.
The THP1-Dual cells express the secreted embryonic alkaline phosphatase (SEAP) reporter gene under a promoter containing five copies of the NF-κB consensus transcriptional response element. The THP1-Dual cells allow the NF-κB pathway to be studied by monitoring the SEAP activity. The SEAP alkaline phosphatase activity is determined by means of the QUANTI-Blue colorimetric enzyme assay (InvivoGen). The THP1-Dual cells are cultured in a 96-well plate (200 μL/well). After LPS or R848 treatment, for each well, 20 μL of culture medium are added to 180 μL of the QUANTI-Blue solution and incubated at 37° C. for 2 h. Absorbance (measurement at 655 nm with a spectrophotometer (Bio-Rad Model 680 microplate reader) is proportional to SEAP activity.

[7] = system: monocytes; experiment: Intracellular TNFα production in isolated monocytes by flow cytometry; format: cell-based, human
[8] = system: THP1 human monocytic cell line; experiment: RT-qPCR of pro-inflammatory gene transcription in THP1-Dual monocytes; format: cell-based; conditions: dose effect; for concentration from which transcription of the genes coding for TNFα and IL-1β is reduced: induced by LPS, 1 hour; for concentration from which transcription of the genes coding for TNFα, IL-6, MCP1 and IL-1β is reduced: induced by R848 5 μg/ml, 16 h
Experimental: The THP1-Dual cell lines were cultured at 1×10^6 cells/ml.
The THP1-Dual cells (InvivoGen) were stimulated for 16 h with the TLR7/8 agonist (R848) at 5 μg/ml or for 1 hour with the TLR4 agonist (LPS) at 100 ng·ml, respectively. The cells were washed in PBS and lysed to prepare the mRNAs for an RT-qPCR analysis.
The total RNAs are extracted from the cells with the E.Z.N.A. kit. Total RNA Kit 1 (Omega Bio-tek) according to the supplier's instructions. The RNA concentration is measured by means of a spectrophotometer (Nanodrop ND-1000). The total RNA is reverse-transcribed into cDNA by means of the PrimeScript RT Master Mix kit (Takara RR036A). The cDNA synthesis is carried out according to the following protocol: 300-500 ng of RNA in 8 μL of water free of RNase, supplemented with 2 μL of the reaction buffer (containing the PrimeScript reverse transcriptase, RNase inhibitors, oligo(dT) primers, random 6mers and the mix of dNTPs). The enzymatic reverse transcription reaction is carried out at 37° C. for 15 min. The enzyme is inactivated by incubating the sample at 85° C. for 15 sec.
The quantitative real-time PCR is carried out according to the following conditions: cDNA diluted to 1/10th is added to the following mixture: 3.8 μL of H2O, […] of sense and antisense primers (10 μM) (Table 3), 5 μL of Absolute qPCR SYBR Green Mix containing Thermo-Start DNA Polymerase, MgCl2, SYBR Green and dNTPs (Eurogentec). The assays are carried out in triplicate in a 384-well plate (Thermo Scientific). DNA amplification by quantitative PCR is carried out in the CFX384 system (Bio-Rad) with the following program: 3 min at 95° C./5 sec at 95° C. and 30 sec at 60° C. repeated 40 cycles/2 min at 72° C. and 30 sec at 95° C. followed by a dissociation step which makes it possible to verify the specificity of the amplification product. The DNA amplification data are analyzed with Bio-Rad CFX Manager software.

[9] = system: plasmacytoid dendritic cells (pDCs); format: cell-based, human
[10] = system: NF-κB transcription factor; experiment: NF-κB activity in THP1-Dual reporter cells fed supernatants of R848-stimulated PBMCs; conditions: for IC50: Homo sapiens, THP1-Dual, read-out: IC50 NF-κB; for secretion of inflammatory cytokines on PBMCs: preventively, 1 h before stimulation by TLR7/8
Experimental: The in vitro experiments were carried out using human peripheral blood mononuclear cells (PBMCs) isolated by density with centrifugation using a medium for separating white blood cells from peripheral blood ([sequence] Technologies). […] The peripheral blood mononuclear cells (PBMCs) were cultured in RPMI 1640 (Sigma) containing 10% inactivated fetal calf serum and 1 mM glutamine (Hyclone, Logan, UT).
The PBMCs were cultured at 2×10^6 cells/ml. The cells were then incubated with the compounds of the invention at the indicated concentrations for 1 h before stimulation. The PBMCs were then stimulated for 24 h with the TLR7/8 agonist Resiquimod (R848) at 5 μg/ml. The supernatants were collected for cytokine detection.
The activity of the NF-κB transcription Factor and the induction of the interferon (IFN) pathway via interferon regulatory factors (IRFs) were measured using the THP1-Dual reporter cell line from InvivoGen. The PBMC culture supernatants were added to the THP1-Dual cultures at a rate of 0.4×10^6 cells/ml for 24 h. The activity of the NF-κB transcription factor was measured with QUANTI-Blue, a SEAP detection agent following the supplier's recommendations. The activity of the IRFs was measured with QUANTI-Luc, a luciferase detection reagent following the supplier's recommendations.

[11] = system: monocytes; experiment: TNFα production in monocytes treated with siPDK1 or siCTL and stimulated with R848; format: cell-based, human; conditions: 20 μM, 1 h before R848 1 μg/ml
[12] = system: peripheral blood mononuclear cells (PBMCs); experiment: LegendPlex assay of cytokines in supernatants of stimulated PBMCs; conditions: for secretion of TNFα, IL-1β, IL-6, IL-18, IL-23, IFNγ and MCP1 on PBMCs: stimulation by TLR4 (LPS 100 ng/ml, 24 h); for secretion of TNFα, IL-1β, IL-6, IL-10, IL-12 p70, IL-18, IL-23, IL-33, IFNα2, IFNγ and MCP1 on PBMCs: stimulation by TLR7/8 (R848 5 μg/ml, 24 h)
Experimental: The in vitro experiments were carried out using human peripheral blood mononuclear cells (PBMCs) isolated by density with centrifugation using a medium for separating white blood cells from peripheral blood ([sequence] Technologies). The blood from the healthy donors was obtained at the “Etablissement Frangais du Sang” (French Blood Establishment) (convention #07/CABANEL/106; Paris, France). […] The peripheral blood mononuclear cells (PBMCs) were cultured in RPMI 1640 (Sigma) containing 10% inactivated fetal calf serum and 1 mM glutamine (Hyclone, Logan, UT).
The PBMCs were cultured at 2×10^6 cells/ml. The cells were then incubated with the compounds of formula (V) and (VI) at the indicated concentrations for 1 hour before stimulation. The PBMCs were then stimulated for 24 h with the TLR7/8 agonist Resiquimod—R848 at 5 μg/ml and the TLR4 agonist Lipopolysaccharide—LPS at 100 ng/ml. The supernatants were collected for cytokine detection.
An assay of the cytokines in the supernatants of the cell cultures was carried out using the “LegendPlex Antivirus Human Panel” or “LegendPlex Human Inflammation Panel” (Biolegend, San Diego, USA) according to the manufacturer's instructions.

[13] = system: pyruvate kinase (PK); experiment: Pyruvate kinase activity assay; format: biochemical
Experimental: Inhibitors (2 μL) are added to 193 μL of a mixture containing PEP, ADP, MgSO4, β-NADH and L-lactic dehydrogenase. After reading at 340 nm, 7 μL of pyruvate kinase are added to the mixture. The samples are read at 340 nm every 1 to 2 min for 20 min.

[14] = PBMCs incubated with compound 1 h before R848 5 μg/ml for 24 h, supernatants on reporter cells, QUANTI-Luc
[15] = stimulation of TLR4 by LPS, 24 h
[16] = stimulation of TLR7/8 by R848, 24 h
[17] = Condition A: 20 μM, 1 h before stimulation of TLR7/8 (R848 5 μg/ml)
[18] = Condition B: 20 μM, 1 h before stimulation of TLR4 (LPS 100 ng/ml)
[19] = Condition C: 20 μM, 1 h before stimulation of TLR2 (LTA 1 μg/ml)
[20] = Condition B: 20 μM, 1 h before stimulation by the influenza virus

Compound	secretion of interferons by PBMCs [1]	activation of B lymphocytes (CD69 membrane activation marker) [2]	IC50 [3, 14]	secretion of interferons on PBMCs [3]	secretion of interferons by PBMCs [4]	activation of the IRF transcription factor in THP1-Dual cells [5]	activation of the NF-κB transcription factor in THP1-Dual cells [6, 15]	activation of the NF-κB transcription factor in THP1-Dual cells [6, 16]	production of TNFα on monocytes [7, 17]	production of TNFα on monocytes [7, 18]	production of TNFα on monocytes [7, 19]	concentration from which transcription of the genes coding for TNFα and IL-1β is reduced [8]	concentration from which transcription of the genes coding for TNFα, IL-6, MCP1 and IL-1β is reduced [8]	production of TNFα on plasmacytoid dendritic cells [9, 20]	IC50 [10]	secretion of inflammatory cytokines on PBMCs [10]	production of TNFα by monocytes treated with control siRNAs (siCTL) [11]	production of TNFα by monocytes treated with siRNAs targeting PDK1 (siPDK1) [11]	secretion of TNFα, IL-1β, IL-6, IL-18, IL-23, IFNγ and MCP1 on PBMCs [12]	secretion of TNFα, IL-1β, IL-6, IL-10, IL-12 p70, IL-18, IL-23, IL-33, IFNα2, IFNγ and MCP1 on PBMCs [12]	further results
COc1cccc(-n2nc3c(N)cc(-c4ccccc4)nc3c2C(=O)NN)c1 [Compound of formula (VIII), 7-amino-2-(3-methoxyphenyl)-5-phenyl-2H-pyrazolo[4,3-b]pyridine-3-carbohydrazide]	inhibit	capable of blocking	23 µM	capable of blocking	inhibit	inhibit															
COc1cccc(NN=C(C#N)C#N)c1 [Compound of formula (V), 2-[(3-methoxyphenyl)hydrazinylidene]propanedinitrile]	inhibit	capable of blocking		capable of blocking	inhibit	inhibit	inhibit	inhibit	inhibit	inhibit	inhibit	≥ 5 µM	≥ 5 µM	inhibit	3.8 µM	capable of blocking	inhibit	fail to inhibit	capable of blocking	capable of blocking	IC50 [3]: 3 µM; production of TNFα on plasmacytoid dendritic cells ([9]; Condition A: 20 μM, 1 h before stimulation of TLR7 (R848 5 μg/ml)): inhibit; production of TNFα on plasmacytoid dendritic cells ([9]; Condition C: 20 μM, 1 h before stimulation of TLR9 (CpG-A)): inhibit; enzymatic activity of pyruvate kinase (PK) [13]: no impact
COc1ccc(NN=C(C#N)C#N)cc1 [Compound of formula (VI), 2-[(4-methoxyphenyl)hydrazinylidene]propanedinitrile]	inhibit	capable of blocking	3 µM	capable of blocking	inhibit	inhibit	inhibit	inhibit	inhibit	inhibit	inhibit	≥ 1 µM	≥ 2 µM	inhibit	5 µM	capable of blocking	inhibit	fail to inhibit	capable of blocking	capable of blocking	production of TNFα on plasmacytoid dendritic cells [9]: inhibit; enzymatic activity of pyruvate kinase (PK) [13]: no impact
COc1cccc(-n2nc3c(N)cc(-c4ccccc4)nc3c2C(=O)NCc2ccccc2)c1 [Compound of formula (VII), 7-amino-N-benzyl-2-(3-methoxyphenyl)-5-phenyl-2H-pyrazolo[4,3-b]pyridine-3-carboxamide]		capable of blocking	23 µM	capable of blocking																	
COC(=O)c1c(NC(=O)C(F)(F)F)c(C#N)nn1-c1cccc(OC)c1 [Compound of formula (IX), methyl 3-cyano-1-(3-methoxyphenyl)-4-(2,2,2-trifluoroacetamido)-1H-pyrazole-5-carboxylate]			0.4 µM	capable of blocking	inhibit	inhibit															
